Laboratory results from patent US6444648B1, “Leishmaniasis remedy containing glucopyranose derivative as the active ingredient” (University of the Ryukyu, priority 1997, dated 2002).

Test system: L. amazonesis
Assay: Effects upon leishmaniasis-infected mice (shrinkage of skin foci)
Assay type: in vivo, BALB/c mice
Conditions: 30 mg/kg twice a week for 8 weeks; for Average focus shrinkage degree: before administration = 100
From the text: L. amazonesis was inoculated to tail root portions of BALB/c mice to prepare L. amazonesis-infected mice, and the mice were used 6 week after the infection. These mice were divided into four groups as mentioned below, infected foci (tail root portions) were photographed with lapse of time, and the effects upon them were examined in terms of [by means of] shrinkage degrees of the skin foci. The shrinkage degree of the skin focus was found by measuring a major axis of ulcer or node. The magnitude before administration was taken as 100 and the magnitude 8 weeks after administration was calculated according to the following calculation formula. Group A (Control group) Only a solvent (55% ethanol-4.5% glucose liquid) was injected topically into a focus twice a week for 8 weeks. Group B (Control group) Only a solvent (55% ethanol-4.5% glucose liquid) was injected intraperitoneally twice a week for 8 weeks. Group C (Topically injected group) A solution in which the sodium salt of the compound in the present invention represented by the formula (1) was dissolved in the solvent was injected topically into a focus twice a week for 8weeks at a rate of 30 mg/kg. Group D (intraperitoneally injected group) A solution in which the sodium salt of the compound in the present invention represented by the formula (1) was dissolved in the solvent was injected intraperitoneally twice a week for 8 weeks at a rate of 30 mg/kg. [formula]

| Molecule | Effect on focal infection of leishmaniasis-infected mice (in words) (conclusion from Table 1, topical or intraperitoneal) | Average focus shrinkage degree (Group C: injected topically into focus, magnitude (major axis of ulcer or node) 8 weeks after administration, n = 7, solvent control Group A 220.5) | Skin focus completely cured (number of mice) (Group C: topical injection, n = 7) | Average focus shrinkage degree (Group D: injected intraperitoneally, magnitude 8 weeks after administration, n = 6, solvent control Group B 289.3) |
| --- | --- | --- | --- | --- |
| CCCCCCCCCCC[C@@H](CC(=O)N[C@@H]1[C@@H](OC(=O)CCCCCCCCc2ccccc2)[C@H](OS(=O)(=O)[O-])[C@@H](CO)O[C@@H]1O)OC(=O)CCCCCCCCc1ccccc1.[Na+] [the compound in the present invention, 2-deoxy-2-[(3S)-(9-phenylnonanoyloxy)tetradecanoyl]-amino-3-O-(9-phenylnonanoyl)-4-O-sulfo-α-D-glucopyranose] | effectively shrunk the focal infection | – | – | – |
| 2-deoxy-2-[(3S)-(9-phenylnonanoyloxy)tetradecanoyl]amino-3-O-(9-phenylnonanoyl)-4-O-sulfo-α-D-glucopyranose | – | 138.9 (n = 7) | completely cured with respect to three mice | 178.5 (n = 6) |
